# According to patent US7314888B1, “Compounds and medicinal use thereof” (Toyama Chemical Co., Ltd., priority 1998, dated 2008):
# Bridge positions count the residues as written; N and C are the ends. Peptide text beside a SMILES is read from it.
# Assays:
# [1] = target: T1, AP-1 complex (Fos/Jun peptide) (Homo sapiens, UniProt P01100+P05412); assay: Activities on AP-1 binding reaction to recognition sequence (ELISA) using Fos/Jun peptide; settings: read-out: Inhibition rate %
# T1 construct: made in house; host or cells: chemical peptide synthesis (no expression host)
# Experimental: (§1) Activities on AP-1 Binding Reaction to Recognition Sequence (ELISA)
# On the other hand, Jun peptide and N-terminal biotinylated tetraglycine Fos peptide containing a DNA-binding site [Nature, Vol. 373, Pages 257-261, 1995] were synthesized and separately dissolved in tris buffer (20 mM tris-hydrochloride (pH 7.5), 50 mM potassium chloride, 1 mM ethylenediaminetetraacetic acid, 10 mM magnesium chloride, 1 mM dithiothreitol, 0.5M guanidine hydrochloride, 30% glycerol). Equimolar quantities of both the solutions were mixed together, and the mixture was used as an AP-1 complex (Fos/Jun peptide). The AP-1 complex was added to avidin-coating 96-well ELISA plate (10 pmol/well), washed, and then blocked with bovine serum albumin. The product was used for binding assay using AP-1 complex.
# (§2) On the basis of the above-mentioned two coated AP-1, a digoxigenin-labeled double stranded oligonucleotide (22-mer) containing an AP-1 binding sequence ([…]) which has been synthesized elsewhere was reacted in the presence and absence of a sample at room temperature for 30-60 minutes in a binding reaction solution [Hepes buffer or 25 mM tris-hydrochloric acid (pH 7.9), 0.5 mM ethylenediaminetetraacetic acid, 0.05% Nonidet P-40, 10% glycerol]. After of the reaction, unbound labeled oligonucleotide washed out with Hepes buffer solution containing 0.05% of Tween-20. Then, an anti-digoxigenin antibody labeled with peroxidase was added, and reacted with the labeled oligonucleotide bound to AP-1. After washing out the excessive antibody with Hepes buffer containing 0.05% of Tween-20, the residue was reacted for a predetermined period of time in a 100 mM citrate buffer (pH 5.0) containing hydrogen peroxide by using o-phenylenediamine as a substrate. After adding-sulfuric acid solution to each well, absorbance (492 nm) was measured. Taking the absorbance in the absence of sample as 100%, inhibition rate of sample was calculated from the absorbance in the presence of sample.
# [2] = system: transcription factor AP-1 (nuclear extract protein prepared from HeLa cells); assay: Activities on AP-1 binding reaction to recognition sequence (ELISA) using nuclear extract protein; settings: 100 μM; ELISA using nucleus-extracted protein
# Experimental: as §1
# Nuclear extract protein containing transcription factor AP-1 prepared from HeLa cells was coated on 96-well ELISA plate (100 ng/well) in Hepes buffer (20 mM Hepes-potassium hydroxide (pH 7.9), 0,5 mM ethylenediamine-tetraacetic acid, 50 mM potassium chloride, 10% glycerol). After washing, a blocking treatment was carried out with bovine serum albumin, and then used for a binding assay using nuclear extract protein.
# as §2
# T1 sequence (P01100 137-200 limits assumed): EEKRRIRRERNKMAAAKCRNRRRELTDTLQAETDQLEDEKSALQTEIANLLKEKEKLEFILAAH
# T1 sequence (P05412 252-315 limits assumed): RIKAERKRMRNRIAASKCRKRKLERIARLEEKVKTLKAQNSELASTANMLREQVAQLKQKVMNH
Compound,inhibition at 200 µM [1],inhibition at 500 µM [1],Inhibition rate [2]
"CC(C)COc1ccc(C(=O)c2ccc(OCC(C)C)c(C(=O)O)c2)c(OCC(C)C)c1 [Example 8, 5-(2,4-diisobutoxybenzoyl)-2-isobutoxybenzoic acid]",9%,20%,–
"CC(C)COc1ccc(C(=O)c2ccc(OCC(C)C)c(CCC(=O)NS(C)(=O)=O)c2)c(OCC(C)C)c1 [Example 58, N-{3-[5-(2,4-diisobutoxybenzoyl)-2-isobutoxyphenyl]propanoyl}methanesulfonamide]",22%,88%,–
"CC(C)COc1ccc(C(NS(C)(=O)=O)c2ccc(OCC(C)C)c(CCC(=O)O)c2)c(OCC(C)C)c1 (stereo not shown) [Example 73, 3-(5-{(2,4-diisobutoxyphenyl)[(methylsulfonyl)amino]methyl}-2-isobutoxyphenyl)propanoic acid]",18%,74%,–
"CC(C)COc1ccc(C(O)c2ccc(OCC(C)C)c(C=CC(=O)O)c2)c(OCC(C)C)c1 (stereo not shown) [Example 14, 3-[5-[(2,4-diisobutoxyphenyl)(hydroxy)methyl]-2-isobutoxyphenyl]-2-propenoic acid]",21%,90%,–
"CC(C)COc1ccc(C(=O)c2ccc(OCC(C)C)c(CC(=O)O)c2)c(OCC(C)C)c1 [Example 7, 2-[5-(2,4-diisobutoxybenzoyl)-2-isobutoxyphenyl]acetic acid]",14%,46%,–
"CC(C)CC=C1CCC2(CC1)SC[C@H](C(=O)O)N2C(=O)CCC(C)C (stereo partly drawn) [Example 4, (3S)-8-(3-methylbutylidene)-4-(4-methylpentanoyl)-1-thia-4-azaspiro[4.5]-decane-3-carboxylic acid]",8%,15%,–
"CC(=O)NC1CSSCC(C(N)=O)NC(=O)CNC(=O)C(CC(=O)O)NC(=O)C(C)NC(=O)C(CC(C)C)NC(=O)C(CO)NC(=O)C(CC(C)C)NC(=O)C(CCC(N)=O)NC(=O)CNC1=O (stereo not drawn) [3(5), Ac-Cys^1-Gly-Gln-Leu-Ser-Leu-Ala-Asp-Gly-Cys^10-NH2 (Cys^1-Cys^10)] (Ac-CGQLSLADGC-NH2; disulfide 1-10; configuration not given here)",–,–,43%
"CC(=O)NC1CSSCC(C(N)=O)NC(=O)CNC(=O)CNC(=O)C(C)NC(=O)C(CC(C)C)NC(=O)C(CC(=O)O)NC(=O)C(CC(C)C)NC(=O)C(CCC(N)=O)NC(=O)CNC1=O (stereo not drawn) [3(3), Ac-Cys^1-Gly-Gln-Leu-Asp-Leu-Ala-Gly-Gly-Cys^10-NH2 (Cys^1-Cys^10)] (Ac-CGQLDLAGGC-NH2; disulfide 1-10; configuration not given here)",–,–,43%
"Ac-Asn-Cys^2-Gly-Asn-Leu-Leu-Ala-Leu-Gly-Ser-Cys^11-NH2 (Cys^2-Cys^11) (GNLLALGSC; not fully specified; Ac-Asn-Cys N-term, C-amide, disulfide; printed: Gly-Asn-Leu-Leu-Ala-Leu-Gly-Ser-Cys) [3(7)]",–,–,74%
"CC(C)COc1ccc(C(O)c2ccc(OCC(C)C)c(CC(=O)O)c2)c(OCC(C)C)c1 (stereo not shown) [Example 9, 2-{5-[(2,4-diisobutoxyphenyl)(hydroxy)methyl]-2-isobutoxyphenyl}-acetic acid]",23%,37%,–
"CC(C)CCOc1ccc(C(=O)c2ccc3c(c2)n(CCC(C)C)c(=O)n3CCC(C)C)cc1CC(=O)O [Example 90, 2-[5-[(1,3-diisopentyl-2-oxo-2,3-dihydro-1H-benzimidazol-5-yl)carbonyl]-2-(isopentyloxy)phenyl]-acetic acid]",26%,96%,–
"CC(C)COc1ccc(Cc2ccc(OCC(C)C)c(CC(=O)O)c2)c(OCC(C)C)c1 [Example 16, 2-[5-(2,4-diisobutoxybenzyl)-2-isobutoxyphenyl]acetic acid]",21%,65%,–
"CC(C)COc1ccc(C(=O)c2ccc(OCC(C)C)c(/C=C/C(=O)O)c2)c(OCC(C)C)c1 [Example 13, 3-[5-(2,4-diisobutoxybenzoyl)-2-isobutoxyphenyl]-2-propenoic acid]",43%,96%,–
CC(=O)NC1CSSCC(C(N)=O)NC(=O)CNC(=O)C(CC(N)=O)NC(=O)C(C)NC(=O)C(CC(C)C)NC(=O)C(CC(=O)O)NC(=O)C(CC(C)C)NC(=O)C(CCC(N)=O)NC(=O)CNC1=O (stereo not shown) [3 (4)] (Ac-CGQLDLANGC-NH2; disulfide 1-10; configuration not given here),–,–,64%
"CC(C)COc1ccc(C(=O)c2ccc(OCC(C)C)c(C(=O)NCC(=O)O)c2)c(OCC(C)C)c1 [Example 57, 2-{[5-(2,4-diisobutoxybenzoyl)-2-isobutoxybenzoyl]amino}-acetic acid]",13%,62%,–
CC(=O)NC1CSSCC(C(N)=O)NC(=O)CNC(=O)C(CC(C)C)NC(=O)C(C)NC(=O)C(CC(C)C)NC(=O)C(CO)NC(=O)C(CC(C)C)NC(=O)C(CCC(N)=O)NC(=O)CNC1=O (stereo not shown) [3 (2)] (Ac-CGQLSLALGC-NH2; disulfide 1-10; configuration not given here),–,–,94%
"Ac-Cys^1-Gly-Gln-Leu-Asp-Leu-Ala-Asp-Gly-Cys^10-NH2 (Cys^1-Cys^10) (GQLDLADGC; not fully specified; N-acetyl Cys, C-amide, Cys1-Cys10 disulfide; printed: Gly-Gln-Leu-Asp-Leu-Ala-Asp-Gly-Cys) [Example 2]",–,–,81%
"CC(C)COc1ccc(C(=O)c2ccc(OCC(C)C)c(OCC(=O)O)c2)c(OCC(C)C)c1 [Example 53, 2-[5-(2,4-diisobutoxybenzoyl)-2-isobutoxyphenoxy]acetic acid]",30%,79%,–
"CC(C)COc1ccc(C(=O)c2ccc(OCC(C)C)c(OCC(C)C)c2)cc1CCC(=O)O [Example 47, 3-[5-(3,4-diisobutoxybenzoyl)-2-isobutoxyphenyl]-propanoic acid]",35%,92%,–
CC(=O)NC1CSSCC(C(N)=O)NC(=O)C(CC(=O)O)NC(=O)CNC(=O)C(CC(C)C)NC(=O)C(C)NC(=O)C(CC(C)C)NC(=O)C(CC(C)C)NC(=O)C(CC(N)=O)NC(=O)CNC1=O (stereo not shown) [3 (10)] (Ac-CGNLLALGDC-NH2; disulfide 1-10; configuration not given here),–,–,76%
"CC(C)COc1ccc(OCC(C)C)c(C(=O)c2ccc(OCC(C)C)c(CCC(=O)O)c2)c1 [Example 43, 3-[5-(2,5-diisobutoxybenzoyl)-2-isobutoxyphenyl]-propanoic acid]",28%,72%,–
"CC(C)COc1ccc(C(=O)c2ccc(OCC(C)C)c(CCC(=O)O)c2)c(O)c1 [Example 38, 3-[5-(2-hydroxy-4-isobutoxybenzoyl)-2-isobutoxyphenyl]-propanoic acid]",18%,91%,–
"CC(C)COc1ccc(C(O)c2ccc(OCC(C)C)c(CCC(=O)O)c2)c(OCC(C)C)c1 (stereo not shown) [Example 15, 3-{5-[(2,4-diisobutoxyphenyl)(hydroxy)methyl]-2-isobutoxyphenyl}propionic acid]",19%,64%,–
"CC(C)CCOc1ccc(C(=O)c2cc(C(=O)CC(C)C)cn2CCC(C)C)cc1CCC(=O)O [Example 88, 3-[5-{[1-isopentyl-4-(3-methylbutanoyl)-1H-pyrrol-2-yl]carbonyl}-2-(isopentyloxy)phenyl]propanoic acid]",29%,72%,–
"CC(C)COc1cc(OCC(C)C)cc(C(=O)c2ccc(OCC(C)C)c(CCC(=O)O)c2)c1 [Example 41, 3-[5-(3,5-diisobutoxybenzoyl)-2-isobutoxyphenyl]propanoic acid]",27%,78%,–
"CC(C)COc1ccc(C(=O)c2ccc3c(c2)cc(C(=O)O)n3CC(C)C)c(OCC(C)C)c1 [Example 82, 5-(2,4-diisobutoxybenzoyl)-1-isobutyl-1H-indole-2-carboxylic acid]",28%,97%,–
CC(=O)NC1CSSCC(C(N)=O)NC(=O)CNC(=O)C(CC(=O)O)NC(=O)C(C)NC(=O)C(CC(C)C)NC(=O)C(CC(=O)O)NC(=O)C(CC(C)C)NC(=O)C(CC(N)=O)NC(=O)CNC1=O (stereo not shown) [3 (6)] (Ac-CGNLDLADGC-NH2; disulfide 1-10; configuration not given here),–,–,42%
